From paper PMC6155625 (Molecules : A Journal of Synthetic Chemistry and Natural …, 2017)
pIC50: −log10 of the molar value. Marks after values point to notes of the source that are not given here.

Assays:
HepG2 cells [1] = test: In vitro mammalian chromosome aberration test on HepG2; assay type: cell-based, human
Description: HepG2 and VH10 cells were seeded into Petri dishes (Ø = 60 mm; HepG2 inoculum of 1 × 10^6 cells/dish and VH10 inoculum of 3.8 × 10^5 cells/dish) for 2 h. […] Three hours before the end of the cultivation, colchicine (0.75 µg/mL) was added. Before karyological processing, the cells were counted. Slides were prepared by the standard air-drying method and were stained with 2% aqueos Giemsa-Romanowski solution for 10 min.
(§1) Chromosome aberrations were evaluated by a microscopic examination. For each sample, 100 metaphases were analyzed. We focused on the following structural aberrations; breaks, chromatid, and iso-chromatid, and exchanges, including dicentrics, rings, tri-radials and quadri-radials. The results were evaluated statistically on the basis of the difference between two relative values. The percentage of aberrant metaphases and the total number of chromosome aberrations was compared to solvent control (SC), or clastogenic effect, and positive control (PC), or anticlastogenic effect. Since the genetic significance of gaps is not clearly understood, they were not included in the assessment of chromosomal damage and thus were not evaluated statistically.

[2] = test system: Salmonella typhimurium TA97; settings: HF 0.075–2 µg/plate + 9-aminoacridine 50 µg/plate; without S9
Description: (§2) The Ames assay was conducted according to the method modified by Maron and Ames. In the Ames test, three bacterial strains of S. typhimurium (TA97, TA98, and TA100) were used. These strains are deficient in histidine and biotin, and, at the same time, they are deficient in excision repair. Prior to each experiment, the quality of each bacterial strain was checked similarly, as described by Berg et al.. The assay was carried out in sterile test tubes containing 100 µL (approximately 1.10^8 cells/mL) of overnight bacterial culture (overnight cultivated in 50 mL of LB medium) and 2.5 mL of the top-agar (with traces of histidine and biotin). In the case of metabolic activation, S9 mix was used to activate a promutagen 2-aminofluorene (50 µg/plate, Serva, Heidelberg, Germany). […] As positive controls (PC), the following diagnostic/direct mutagens were used: 9-aminoacridine (50 µg/plate, Serva, Heidelberg, Germany) for TA97; 4-nitroquinoline-1-oxide (20 µg/plate, Serva, Heidelberg, Germany) for TA98; and sodium azide (50 µg/plate, Serva, Heidelberg, Germany) for TA100. […] After 48 h of cultivation at 37 °C, his^+ revertants were counted. All experiments were conducted in triplicate. The data obtained were then analyzed using Student’s t-test.

S. typhimurium TA100 = settings: HF 0.075–2 µg/plate + sodium azide 50 µg/plate; without S9
Description: as §2

S. typhimurium TA98 = settings: all HF concentrations (0.075–2 µg/plate) + 4-NQO 20 µg/plate; without S9
Description: as §2

HepG2 cells [3] = settings: read-out: IC50 (cell survival, MTT), 42 h treatment
Description: Thereafter, the medium was removed, and replaced by 200 µL of DMSO. The absorbance was measured at 540 and 690 nm using an xMarkTM Microplate Spectrophotometer (Bio-Rad Laboratories, Inc., Berkeley, CA, USA).

human lymphocytes = settings: HF 0.02–1 µM pretreatment, then zeocin 4.5 µM
Description: In the alkaline comet assay human lymphocytes were used. They were isolated from peripheral blood obtained by the finger prick method. To 1 mL of ice cold 1× PBS, 40 μL of peripheral blood was added and allowed to stand on ice for 30 min. Lymphocytes were separated from whole blood samples by standard centrifugation with 100 μL of the Histopaque medium (Sigma-Aldrich). After the centrifugation, 200 μL of isolated cells were resuspended in 1 mL of 1× PBS buffer and re-centrifuged.
This assay was selected for detecting the potential antigenotoxic effect of HF towards zeocin on the human lymphocytes. […] Briefly, human lymphocytes were suspended in 1% low melting point agarose (LMP) in PBS and placed on slides pre-coated with 1% normal melting point agarose (NMP). Slides with embedded lymphocytes were incubated for 1 h in HF solution (0.02; 0.05; 0.2; 1 µM). […] Afterwards, the zeocin solution was rinsed off with PBS. […] For the negative control, cells were left untreated in PBS for 1 h. […] Finally, the slides were stained with 20 µg/mL of ethidium bromide (Sigma-Aldrich, Bratislava, Slovakia), and, in each sample, 100 random nucleoids were scored at magnification 400× using a fluorescence microscope Olympus BX 51. The DNA damage was evaluated using the Comet visual computer software. DNA damage was expressed as the percentage of DNA in the tail (% tail DNA) [55]. […]

VH10 cells = test: In vitro mammalian chromosome aberration test on VH10; assay type: cell-based, human; settings: for Number of Aberrant Metaphases / Number of Chromosome Aberrations, Chromatid b/f / Number of Chromosome Aberrations, Chromatid g / Number of Chromosome Aberrations, Exchange dic / Number of Chromosome Aberrations, Exchange qr / Number of Chromosome Aberrations, Exchange tr / Number of Chromosome Aberrations, Isochromatid b/f / Total Number of CA: 100 metaphases
Description: HepG2 and VH10 cells were seeded into Petri dishes (Ø = 60 mm; HepG2 inoculum of 1 × 10^6 cells/dish and VH10 inoculum of 3.8 × 10^5 cells/dish) for 2 h. Then, HF non-clastogenic concentrations (0.75 or 1.5 µM) were added and the cultures were incubated for 24 h. These concentrations of HF were chosen based on preliminary experiments (range-finding tests). Afterwards the medium was replaced with fresh medium alone or with fresh medium containing mutagens B(a)P (1.7 μM for HepG2 cells) or cisPt (0.5 μM for HepG2 cells and 0.75 μM for VH10 cells), and the HepG2 cells were cultivated further for 42 h and VH10 cells for 36 h, which approximately corresponds to 1.3 cell cycles of HepG2 and VH10 cells. Three hours before the end of the cultivation, colchicine (0.75 µg/mL) was added. Before karyological processing, the cells were counted. Slides were prepared by the standard air-drying method and were stained with 2% aqueos Giemsa-Romanowski solution for 10 min.
as §1

[4] = HF 0.75 µM pretreatment 24 h + cisPt 0.5 µM, 100 metaphases
[5] = HF 0.75 µM pretreatment + B(a)P 1.7 µM, 100 metaphases
[6] = HF 1.5 µM pretreatment 24 h + cisPt 0.5 µM, 100 metaphases
[7] = HF 1.5 µM pretreatment + B(a)P 1.7 µM, 100 metaphases
[8] = HF 0.75 µM pretreatment 24 h + cisPt 0.75 µM
[9] = HF 1.5 µM pretreatment 24 h + cisPt 0.75 µM
[10] = cisPt 0.5 µM (positive control), 100 metaphases
[11] = cisPt 0.75 µM (positive control)

**Q.** Which “Number of Aberrant Metaphases” value (HepG2 cells [1]; [4]) does the source give for Hyperforin [HF] here?
**A.** 10 *^,###

**Q.** What about the “Number of Chromosome Aberrations, Chromatid b/f” value (HepG2 cells [1]; [4]) of the same compound?
**A.** 5

**Q.** And the “Number of Chromosome Aberrations, Chromatid g” value (“Number … Chromatid g” for short) (HepG2 cells [1]; [4])?
**A.** 2

**Q.** And the “Number of Chromosome Aberrations, Exchange dic” value (“Number … Exchange dic” for short) (HepG2 cells [1]; [4])?
**A.** 2

**Q.** What about the “Number of Chromosome Aberrations, Isochromatid b/f” value (from here on “Number … Isochromatid b/f”) (HepG2 cells [1]; [4]) of the same compound?
**A.** 4

**Q.** What about the “Total Number of CA” value (HepG2 cells [1]; [4]) of the same compound?
**A.** 11 *^,###

**Q.** And the “Number of Aberrant Metaphases” value (HepG2 cells [1]; [5])?
**A.** 8 ^###

**Q.** What about the “Number of Chromosome Aberrations, Chromatid b/f” value (HepG2 cells [1]; [5]) of the same compound?
**A.** 7

**Q.** And the “Number … Chromatid g” value (HepG2 cells [1]; [5])?
**A.** 1

**Q.** What about the “Number … Isochromatid b/f” value (HepG2 cells [1]; [5]) of the same compound?
**A.** 1

**Q.** And the “Total Number of CA” value (HepG2 cells [1]; [5])?
**A.** 8 ^###

**Q.** What about the “Number of Aberrant Metaphases” value (HepG2 cells [1]; [6]) of the same compound?
**A.** 14 **^,###

**Q.** What about the “Number of Chromosome Aberrations, Chromatid b/f” value (HepG2 cells [1]; [6]) of the same compound?
**A.** 10

**Q.** And the “Number … Chromatid g” value (HepG2 cells [1]; [6])?
**A.** 2

**Q.** What about the “Number … Exchange dic” value (HepG2 cells [1]; [6]) of the same compound?
**A.** 1

**Q.** And the “Number … Isochromatid b/f” value (HepG2 cells [1]; [6])?
**A.** 3

**Q.** And the “Total Number of CA” value (HepG2 cells [1]; [6])?
**A.** 14 **^,###

**Q.** And the “Number of Aberrant Metaphases” value (HepG2 cells [1]; [7])?
**A.** 8 ^###

**Q.** And the “Number of Chromosome Aberrations, Chromatid b/f” value (HepG2 cells [1]; [7])?
**A.** 8

**Q.** What about the “Number … Chromatid g” value (HepG2 cells [1]; [7]) of the same compound?
**A.** 1

**Q.** What about the “Number … Exchange dic” value (HepG2 cells [1]; [7]) of the same compound?
**A.** 1

**Q.** What about the “Total Number of CA” value (HepG2 cells [1]; [7]) of the same compound?
**A.** 9 ^###

**Q.** What about the “amount of aberrant metaphases and chromosome aberrations” value (HepG2 cells [1]; HF 0.75 and 1.5 µM pretreatment 24 h, then cisPt 0.5 µM) of the same compound?
**A.** significant decrease

**Q.** What about the “number of his+ revertants vs positive control” value [2] of the same compound?
**A.** decrease

**Q.** What about the antimutagenic effect (S. typhimurium TA100) of the same compound?
**A.** not observed

**Q.** What about the “number of his+ revertants vs positive control” value (S. typhimurium TA98) of the same compound?
**A.** significant decrease

**Q.** What about the pIC50 (HepG2 cells [3]) of the same compound?
**A.** 4.70

**Q.** And the “percentage of damaged DNA vs positive control (zeocin)” value (human lymphocytes)?
**A.** significantly decreased the percentage of damaged DNA

**Q.** What about the “Number of Aberrant Metaphases” value (VH10 cells; [8]) of the same compound?
**A.** 12 **^,###

**Q.** And the “Number of Chromosome Aberrations, Chromatid b/f” value (VH10 cells; [8])?
**A.** 8

**Q.** What about the “Number … Chromatid g” value (VH10 cells; [8]) of the same compound?
**A.** 1

**Q.** And the “Number … Exchange dic” value (VH10 cells; [8])?
**A.** 1

**Q.** What about the “Number of Chromosome Aberrations, Exchange qr” value (from here on “Number … Exchange qr”) (VH10 cells; [8]) of the same compound?
**A.** 1

**Q.** What about the “Number of Chromosome Aberrations, Exchange tr” value (shortened to “Number … Exchange tr”) (VH10 cells; [8]) of the same compound?
**A.** 1

**Q.** What about the “Number … Isochromatid b/f” value (VH10 cells; [8]) of the same compound?
**A.** 3

**Q.** And the “Total Number of CA” value (VH10 cells; [8])?
**A.** 14 ***^,###

**Q.** What about the “Number of Aberrant Metaphases” value (VH10 cells; [9]) of the same compound?
**A.** 11 **^,###

**Q.** What about the “Number of Chromosome Aberrations, Chromatid b/f” value (VH10 cells; [9]) of the same compound?
**A.** 8

**Q.** And the “Number … Chromatid g” value (VH10 cells; [9])?
**A.** 3

**Q.** What about the “Number … Exchange dic” value (VH10 cells; [9]) of the same compound?
**A.** 1

**Q.** And the “Number … Exchange tr” value (VH10 cells; [9])?
**A.** 2

**Q.** And the “Total Number of CA” value (VH10 cells; [9])?
**A.** 11 **^,###

**Q.** And the “amount of aberrant metaphases and chromosome aberrations” value (VH10 cells; HF pretreatment 24 h, then cisPt 0.75 µM)?
**A.** significant decrease

**Q.** `N.N.[Cl][Pt][Cl]` [cisPt, cisplatinum(II)diamine dichloride, reference compound] was tested. Which “Number of Aberrant Metaphases” value (HepG2 cells [1]; [10]) did it give?
**A.** 38 ***

**Q.** And the “Number of Chromosome Aberrations, Chromatid b/f” value (HepG2 cells [1]; [10])?
**A.** 36

**Q.** And the “Number … Chromatid g” value (HepG2 cells [1]; [10])?
**A.** 2

**Q.** What about the “Number … Exchange dic” value (HepG2 cells [1]; [10]) of the same compound?
**A.** 2

**Q.** What about the “Number … Exchange qr” value (HepG2 cells [1]; [10]) of the same compound?
**A.** 1

**Q.** And the “Number … Isochromatid b/f” value (HepG2 cells [1]; [10])?
**A.** 8

**Q.** And the “Total Number of CA” value (HepG2 cells [1]; [10])?
**A.** 47 ***

**Q.** And the “Number of Aberrant Metaphases” value (VH10 cells; [11])?
**A.** 33 ***

**Q.** What about the “Number of Chromosome Aberrations, Chromatid b/f” value (VH10 cells; [11]) of the same compound?
**A.** 26

**Q.** And the “Number … Chromatid g” value (VH10 cells; [11])?
**A.** 2

**Q.** And the “Number … Exchange qr” value (VH10 cells; [11])?
**A.** 4

**Q.** And the “Number … Exchange tr” value (VH10 cells; [11])?
**A.** 5

**Q.** And the “Number … Isochromatid b/f” value (VH10 cells; [11])?
**A.** 9

**Q.** And the “Total Number of CA” value (VH10 cells; [11])?
**A.** 44 ***
